Measured values published in the NIST ThermoML archive (doi:10.1021/je050062a).

How the values were obtained:
[1] = Liquid; for mass density: 298.15 K, 101.33 kPa
[2] = refractive index (Na D-line) (dimensionless); details: 298.15 K; 101.33 kPa; Liquid; Standard Abbe refractometry

CCCC(C)C [2-methylpentane]
Details | mass density [kg/m3] | refractive index
[1] | 648.46 | –
[2] | – | 1.36877

Details | vapor or sublimation pressure [kPa]
[1], 330 K | 90.76

CC(C)C(C)O (configuration not stated) [3-methyl-2-butanol]
Details | mass density [kg/m3] | refractive index
[1] | 813.42 | –
[2] | – | 1.407

[1]
Details | vapor or sublimation pressure [kPa]
323.61 K | 6.527
329.8 K | 9.28
330 K | 9.35
333.31 K | 11.16
336.52 K | 13.19
340 K | 15.7
340.67 K | 16.23
346.13 K | 21.09
354.08 K | 30.24
360.75 K | 40.25
365.98 K | 49.79
370.47 K | 59.38
374.44 K | 69.02
380.99 K | 87.65
382.59 K | 92.61

CC(=O)C(C)C [3-methyl-2-butanone]
Details | mass density [kg/m3] | refractive index
[1] | 799.55 | –
[2] | – | 1.3862

[1]
Details | vapor or sublimation pressure [kPa]
310.45 K | 12.1
318.08 K | 16.98
324.32 K | 22.06
328.85 K | 26.46
330 K | 27.69
333.49 K | 31.7
337.18 K | 36.45
340 K | 40.45
340.26 K | 40.84
346.23 K | 50.54
348.87 K | 55.4
353.57 K | 64.95
357.9 K | 74.9
361.86 K | 84.97
365.36 K | 94.78
